Source: the supplement of paper PMC11061612

Columns and labels:
Assay in all cases: Bliss excess, mean over the matrix (fraction); higher = more synergy
[1] = test system: LOU-NH91 (Squamous Cell Lung Carcinoma)
Method in brief: (§1)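 Cell lines in DMEM/F12 or RPMI with 10% FBS were plated in 1536-well plates, held 24 hours at 37°C, 5% CO2, then given two-drug dose matrices for 72 hours (DMSO typically 0.2%). Viability was read by CellTiter-Glo 2.0 luminescence and scaled as inhibition from 0 (vehicle wells) to 1 (blank wells). Combination Emax is the second-highest inhibition in the matrix; Bliss excess is observed combination effect minus expected EA + EB − EA·EB, EA and EB being single-agent effects.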

[2] = test system: H-EMC-SS (Chondrosarcoma)
Method in brief: as §1

[3] = test system: OCUM-1 (Gastric Carcinoma)
Method in brief: as §1

[4] = test system: JHH-7 (Hepatocellular Carcinoma)
Method in brief: as §1

[5] = test system: OVISE (Ovarian Carcinoma)
Method in brief: as §1

[6] = test system: KLE (Endometrial Carcinoma)
Method in brief: as §1

[7] = test system: EBC-1 (Squamous Cell Lung Carcinoma)
Method in brief: as §1

[8] = test system: PF-382 (T-Lymphoblastic Leukemia)
Method in brief: as §1

[9] = test system: NCI-H1573 (Lung Adenocarcinoma)
Method in brief: as §1

[10] = test system: VMRC-LCD (Lung Adenocarcinoma)
Method in brief: as §1

[11] = test system: KYSE-50 (Esophageal Squamous Cell Carcinoma)
Method in brief: as §1

[12] = test system: KINGS-1 (Low Grade Glioma)
Method in brief: as §1

[13] = test system: HC-1 (Other Blood Carcinomas)
Method in brief: as §1

[14] = test system: MFE-319 (Endometrial Carcinoma)
Method in brief: as §1

GOTO (Neuroblastoma) = test system: GOTO (Neuroblastoma)
Method in brief: as §1

EW-3 (Ewing's Sarcoma) = test system: EW-3 (Ewing's Sarcoma)
Method in brief: as §1

[15] = test system: BV-173 (Chronic Myelogenous Leukemia)
Method in brief: as §1

[16] = test system: KP-2 (Pancreatic Carcinoma)
Method in brief: as §1

[17] = test system: KU-19-19 (Bladder Carcinoma)
Method in brief: as §1

[18] = test system: SCC-3 (B-Cell Non-Hodgkin's Lymphoma)
Method in brief: as §1

| SMILES | Bliss excess [1] | Bliss excess [2] | Bliss excess [3] | Bliss excess [4] | Bliss excess [5] | Bliss excess [6] | Bliss excess [7] | Bliss excess [8] | Bliss excess [9] | Bliss excess [10] | Bliss excess [11] | Bliss excess [12] | Bliss excess [13] | Bliss excess [14] | Bliss excess (GOTO (Neuroblastoma)) | Bliss excess (EW-3 (Ewing's Sarcoma)) | Bliss excess [15] | Bliss excess [16] | Bliss excess [17] | Bliss excess [18] |
| --- | --- | --- | --- | --- | --- | --- | --- | --- | --- | --- | --- | --- | --- | --- | --- | --- | --- | --- | --- | --- |
| Cn1cnc2c(F)c(Nc3ccc(Br)cc3Cl)c(C(=O)NOCCO)cc21 [Selumetinib] + CCN(CCO)CCCOc1ccc2c(Nc3cc(CC(=O)Nc4cccc(F)c4)[nH]n3)ncnc2c1 [AZD2811] (first compound max 10 µM, 7x7, partner max 1 µM) | -0.0096 | -0.0233 | 0.0153 | -0.0518 | 0.0202 | -0.0456 | -0.003 | 0.111 | -0.0318 | -0.0162 | 0.005 | -0.0447 | 0.0547 | -0.0736 | -0.0175 | -0.0112 | -0.0225 | 0.0449 | 0.0258 | 0.11 |
| CC(=O)Nc1cccc(-n2c(=O)n(C3CC3)c(=O)c3c(Nc4ccc(I)cc4F)n(C)c(=O)c(C)c32)c1 [Trametinib] + Cc1nc(-c2cn3c(n2)-c2ccc(-c4cnn(C(C)(C)C(N)=O)c4)cc2OCC3)n(C(C)C)n1 [Taselisib] (first compound max 1 µM, 7x7, partner max 10 µM) | 0.116 | 0.106 | 0.06 | 0.0427 | 0.0114 | -0.0509 | 0.0674 | 0.234 | 0.088 | -0.0267 | 0.108 | 0.151 | 0.12 | 0.0681 | 0.0482 | 0.046 | 0.0965 | 0.192 | 0.0597 | 0.206 |
| Cc1c2c(nn1C)CSCc1cc(n(C)n1)CSc1cc(c3ccccc3c1)OCCCc1c(C(=O)O)n(C)c3c-2c(Cl)ccc13 [AZD5991] + Cc1cc2ncnn2cc1Nc1ncc2c(n1)n(C1CCOCC1)c(=O)n2C [AZD7648] (first compound max 1 µM, 7x7, partner max 10 µM) | -0.0307 | 0.0025 | -0.0093 | -0.0598 | -0.043 | -0.0598 | -0.0127 | 0.038 | 0.0523 | -0.0302 | -0.0461 | -0.0095 | -0.024 | -0.0534 | -0.02 | -0.0626 | -0.0512 | -0.0103 | 0.0025 | -0.0119 |
| Cn1cnc2c(F)c(Nc3ccc(Br)cc3Cl)c(C(=O)NOCCO)cc21 [Selumetinib] + C=CCn1c(=O)c2cnc(Nc3ccc(N4CCN(C)CC4)cc3)nc2n1-c1cccc(C(C)(C)O)n1 [AZD1775] (first compound max 10 µM, partner max 1 µM) | -0.0144 | -0.07 | -0.0137 | -0.0198 | -0.0436 | -0.0117 | 0.0508 | 0.0137 | -0.0331 | -0.0272 | -0.0209 | 0.0173 | -0.0702 | -0.0715 | -0.0119 | -0.0564 | -0.0026 | 0.0088 | -0.0308 | 0.0092 |
| NC1(C(=O)N[C@@H](CCO)c2ccc(Cl)cc2)CCN(c2ncnc3[nH]ccc23)CC1 [Capivasertib] + COc1nnc2ccc(N3CCC(c4ccc(OCCN5CCN(C)C(=O)[C@H]5C)cc4)CC3)nn12 [AZD5153] (first compound max 10 µM, 7x7, partner max 1 µM) | -0.025 | 0.0011 | 0.0318 | 0.0156 | -0.0055 | -0.0329 | 0.0374 | 0.0451 | -0.0011 | 0.0154 | -0.0054 | -0.0017 | 0.0365 | 0.0499 | 0.032 | 0.0429 | -0.0607 | 0.0358 | 0.0272 | 0.0248 |
| CN(C)CCCOc1ccc(-c2ccc3ncc4c(c3c2)n(C2CCOCC2)c(=O)n4C)cn1 [AZD0156] + CCN(CCO)CCCOc1ccc2c(Nc3cc(CC(=O)Nc4cccc(F)c4)[nH]n3)ncnc2c1 [AZD2811] (first compound max 1 µM, 7x7, partner max 1 µM) | -0.024 | -0.0504 | 0.032 | -0.0296 | -0.0314 | -0.0232 | -0.0117 | -0.0115 | -0.0157 | -0.0476 | -0.0128 | -0.0173 | -0.008 | -0.0431 | 0.129 | -0.0458 | -0.0331 | -0.0086 | 0.0358 | 0.112 |
| NC1(C(=O)N[C@@H](CCO)c2ccc(Cl)cc2)CCN(c2ncnc3[nH]ccc23)CC1 [Capivasertib] + C[C@@H]1COCCN1C2=NC(=NC(=C2)C3(CC3)[S@](=N)(=O)C)C4=C5C=CNC5=NC=C4 [AZD6738] (first compound max 10 µM, 7x7, partner max 10 µM) | -0.0192 | -0.0022 | -0.0088 | -0.0404 | -0.0459 | -0.0692 | -0.0315 | -0.0059 | -0.0522 | -0.0185 | -0.0673 | -0.0197 | -0.0166 | -0.122 | -0.0379 | -0.0457 | -0.0271 | -0.0279 | -0.0748 | -0.0037 |
